Data set [1] has as its target T1, D-3-phosphoglycerate dehydrogenase (Homo sapiens, UniProt O43175).
T1 sequence (O43175 whole entry): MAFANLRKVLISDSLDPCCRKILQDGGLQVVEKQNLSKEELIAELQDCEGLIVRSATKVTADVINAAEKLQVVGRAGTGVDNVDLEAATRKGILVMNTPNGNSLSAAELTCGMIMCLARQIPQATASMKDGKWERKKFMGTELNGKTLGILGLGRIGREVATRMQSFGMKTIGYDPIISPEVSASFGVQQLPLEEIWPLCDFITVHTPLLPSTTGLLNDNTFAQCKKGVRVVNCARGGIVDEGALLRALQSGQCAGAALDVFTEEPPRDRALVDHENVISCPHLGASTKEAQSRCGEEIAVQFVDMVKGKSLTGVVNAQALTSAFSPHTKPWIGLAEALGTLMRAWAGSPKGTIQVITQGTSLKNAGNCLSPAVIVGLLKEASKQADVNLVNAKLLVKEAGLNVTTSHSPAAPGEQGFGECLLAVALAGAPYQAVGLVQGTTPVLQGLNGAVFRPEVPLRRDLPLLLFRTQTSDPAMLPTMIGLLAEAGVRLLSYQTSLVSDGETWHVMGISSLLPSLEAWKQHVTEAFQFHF
The experiment in a line: Inhibition of PHGDH (unknown origin).

In data set [2] the target is T2, D-3-phosphoglycerate dehydrogenase (Homo sapiens) (UniProt O43175).
T2 sequence (whole entry): T1 sequence (O43175 whole entry)
The experiment in a line: Inhibition of N-terminal His6-tagged human liver PHGDH expressed in Escherichia coli Rosetta (DE3)pLysS at 57 uM using 3-phosphoglycerate as substrate after 20 mins in presence of NAD+ by resazurin fluorescence based PSAT1/diaphorase/PSPH coupled enzyme assay. Background: Resazurin is reduced to fluorescent resorufin, in cell work by metabolically active cells.

The nature of data set [3]: Aqueous solubility of the compound. It counts as physicochemical.
A short description of data set [4]: Half life in rat liver microsomes at 1 uM at 37 degC in presence of NADPH regeneration system incubated for 15 mins by LC-MS/MS analysis. The format is ADME, microsome. (Microsomes from liver hold many membrane-bound enzymes, among them those of drug oxidation.)
Data set [5] addresses T1, D-3-phosphoglycerate dehydrogenase.

Molecule `CCNC(=S)N/N=C/c1ccc(-c2ccc(C(=O)O)c(Cl)c2)o1` gave an IC50 in data set [1] of 35.7 µM.
For `Cc1cc(C)nc(NC(=S)N2CCN(c3ccncc3)CC2)c1`, the Imax in data set [2] turned out to be 33%. Further, the solubility in data set [3] is above 48 µM.
As to `Cc1cc(C)nc(NC(=S)N2CCN(c3cccc(C(F)(F)F)c3)CC2)c1`, the inhibition in data set [2] came to 92%. Besides, the t1/2 in data set [4] is reported as above 30 min. In data set [5], this molecule returned an IC50 of 6.3 µM.
With `Cc1cc(C)nc(NC(=S)N2CCC(NCc3ccc(C(F)(F)F)cc3)CC2)c1`, the inhibition in data set [2] was 93%. Further, in data set [5], the IC50 came to 15 µM.
Turning to `Cc1cc(C)nc(NC(=S)N2CCCC(Nc3cccc(C(F)(F)F)c3)C2)c1` (stereo not given), in data set [2], the inhibition came out at 84%. In addition, the concentration for half-maximal inhibition (IC50) in data set [5] was determined as 7.2 µM.
In the same order, the values of `Cc1cc(C)nc(NC(=S)N2CCN(Cc3ccc(C(F)(F)F)cc3)[C@@H](C)C2)c1` are 86% and 9.9 µM.
For the molecule `Cc1cc(C)nc(NC(=S)N2CCN(Cc3ccncc3)CC2)c1`, the inhibition in data set [2] came out at 67%. In data set [5], this molecule showed an IC50 of 59 µM.
As to `Cc1cc(C)nc(NC(=S)N2CCN(Cc3ccc(OC(F)(F)F)cc3)CC2)c1`, in data set [2], the inhibition amounted to 96%. In data set [5], this molecule showed an IC50 of 11 µM.
In the same order, the values of `COc1ccc(CN2CCN(C(=S)Nc3cc(C)cc(C)n3)CC2)cc1` are 87% and 26 µM.
The matching figures for `Cc1cc(C)nc(NC(=S)N2CCN(Cc3ccc(C(F)(F)F)cc3)C(C)C2)c1` (stereo not given): 99% and 8.3 µM.
As to `Cc1cc(C)nc(NC(=S)N2CCN(Cc3ccccc3C(F)(F)F)CC2)c1`, in data set [2], the inhibition came to 92%. This molecule showed an IC50 in data set [5] of 6.3 µM.
On to `Cc1cc(C)nc(NC(=S)N2CCN(c3ccccc3C(F)(F)F)CC2)c1`, for which, in data set [2], the inhibition was found to be 101%. The molecule further returned an IC50 in data set [5] of 8.7 µM.
Consider `Cc1cc(C)nc(NC(=S)N2CCN(Cc3ccc(Br)cc3)CC2)c1`, for which, in data set [2], the inhibition worked out at 92%. Further, the IC50 in data set [5] was found to be 17 µM.
In the same order, the values of `Cc1cc(C)nc(NC(=S)N2CCN(Cc3cccc(C(F)(F)F)c3)CC2)c1` are 102% and 5.3 µM.
The matching figures for `Cc1cc(C)nc(NC(=S)N2CCCC(Nc3ccc(C(F)(F)F)cc3)C2)c1` (stereo not given): 85% and 5.7 µM.
For the molecule `Cc1cc(C)nc(NC(=S)N2CCN(Cc3ccccn3)CC2)c1`, the inhibition in data set [2] came to 51%. In addition, in data set [5], it took 50 µM to reach half-maximal inhibition (IC50).
In the same order, the values of `Cc1cc(C)nc(NC(=S)N2CCN(Cc3ccccc3Cl)CC2)c1` are 106% and 20 µM.
Take `FC(F)(F)c1cccc(N2CCN(C(=S)Nc3ccccn3)CC2)c1`: the inhibition in data set [2] came to 93%. The t1/2 in data set [4] came out at 16 min. Also, inhibition in data set [5] was half-maximal at 6.8 µM (IC50).
Consider `FC(F)(F)c1cccc(N2CCN(C(=S)Nc3ccncc3)CC2)c1`, for which, in data set [2], the inhibition came out at 55%. Besides, it took 14 µM to reach half-maximal inhibition in data set [5] (IC50).
The matching figures for `Cc1cc(C)nc(NC(=S)N2CCN(C(C)c3ccc(C(F)(F)F)cc3)CC2)c1` (stereo not given): 90% and 8 µM.
In the same order, the values of `Cc1cccc(CN2CCN(C(=S)Nc3cc(C)cc(C)n3)CC2)c1` are 92% and 20 µM.
The matching figures for `Cc1cc(C)nc(NC(=S)N2CCN(Cc3cccc(F)c3)CC2)c1`: 88% and 39 µM.

What is called IC50 is the concentration needed to halve the response being measured. A lower IC50 goes with greater potency in that assay. As usually defined, the solubility is the concentration that dissolves in the medium under given conditions. A low value points to little dissolved substance. The term inhibition denotes the change of the read-out against control, counted positive when it falls.
